Test systems include 786-0 renal; ACHN renal; BT-549 breast; IGROV1 ovarian; LOX IMVI melanoma; NCI-H23 lung; NCI-H460 lung; NCI-H522 lung; SF-268 CNS; SK-MEL-28 melanoma.
Common to all, as to assay: inhibition of tumour cell growth, NCI panel, 48 h

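Five compound concentrations were applied to cells in 96-well plates for 48 hours; endpoints were derived by simple linear interpolation of the resulting dose-response curve. GI50 is the concentration that inhibits growth by half. TGI is the concentration that stops growth completely.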

`O=C1CCCCCCCC/C=C\CC(c2ccco2)O1` (stereo not drawn): the GI50 in the assay on 786-0 renal was 21.4 µM; in the assay on ACHN renal it was 23.9 µM; with BT-549 breast it was 28.6 µM; with IGROV1 ovarian, 28.1 µM; in the assay with LOX IMVI melanoma, 32.3 µM; with NCI-H23 lung, 35.8 µM. Also, the GI50 in the assay on NCI-H460 lung is 76.5 µM; with NCI-H522 lung it was 18.1 µM; in the assay with SF-268 CNS, 30.8 µM; with SK-MEL-28 melanoma, 31.1 µM. Besides, the TGI in the assay with 786-0 renal was 70.3 µM; in the assay with ACHN renal, 82.4 µM; in the assay on BT-549 breast it was > 100 µM; in the assay on IGROV1 ovarian, > 100 µM; in the assay on LOX IMVI melanoma, 51.6 µM; in the assay with NCI-H23 lung, > 100 µM. Further, the TGI was > 100 µM with NCI-H460 lung, 47.2 µM in the assay with NCI-H522 lung, > 100 µM with SF-268 CNS and > 100 µM in the assay on SK-MEL-28 melanoma.
For `CC(=O)[C@@]1(O)CC[C@H]2[C@@H]3C[C@H](C)C4=CC(=O)CC[C@]4(C)[C@H]3[C@@H](O)C[C@@]21C`, the TGI in the assay on 786-0 renal, with ACHN renal, in the assay on BT-549 breast, in the assay with IGROV1 ovarian, in the assay on LOX IMVI melanoma and in the assay on NCI-H23 lung was > 100 µM each time. Also, the TGI with NCI-H460 lung, in the assay on NCI-H522 lung, in the assay on SF-268 CNS and in the assay with SK-MEL-28 melanoma was > 100 µM throughout.
With `CC[C@H](Nc1nc(NCc2cnc(C)cc2C)c2ncn(C(C)C)c2n1)[C@@H](C)O`, the GI50 was 0.361 µM in the assay with 786-0 renal; 0.327 µM in the assay on ACHN renal; 0.226 µM with BT-549 breast; 0.347 µM in the assay with IGROV1 ovarian; 0.252 µM in the assay with LOX IMVI melanoma; 0.334 µM with NCI-H23 lung. The GI50 in the assay with NCI-H460 lung was 0.327 µM; in the assay on NCI-H522 lung, 0.262 µM; in the assay with SF-268 CNS, 0.268 µM; in the assay with SK-MEL-28 melanoma, 0.374 µM. For the same molecule, the TGI with 786-0 renal was > 100 µM; in the assay on ACHN renal it was > 100 µM; in the assay with BT-549 breast, 0.8 µM; in the assay with IGROV1 ovarian it was > 100 µM; in the assay on LOX IMVI melanoma, > 67.5 µM; in the assay on NCI-H23 lung, 2.15 µM. Also, the TGI in the assay with NCI-H460 lung is 15.7 µM; in the assay on NCI-H522 lung, 1.31 µM; in the assay on SF-268 CNS, 2.41 µM; in the assay with SK-MEL-28 melanoma, 6.8 µM.
`O=c1c2ccccc2n(C[C@H]2CO2)c2ccccc12`: the GI50 in the assay on 786-0 renal is 2.75 µM; with ACHN renal, 0.886 µM; with BT-549 breast it was 1.91 µM; in the assay with IGROV1 ovarian, 1.53 µM; in the assay with LOX IMVI melanoma, 1.51 µM; in the assay on NCI-H23 lung it was 1.42 µM. In addition, the GI50 was 1.7 µM with NCI-H460 lung, 1.61 µM in the assay with NCI-H522 lung, 1.62 µM in the assay with SF-268 CNS and 2.4 µM in the assay on SK-MEL-28 melanoma. Besides, the TGI worked out at 8.17 µM in the assay with 786-0 renal; 3.9 µM in the assay on ACHN renal; 6.08 µM in the assay on BT-549 breast; 5.6 µM with IGROV1 ovarian; 3.15 µM in the assay on LOX IMVI melanoma; 4.52 µM in the assay with NCI-H23 lung. Besides, the TGI with NCI-H460 lung turned out to be 4.43 µM; in the assay on NCI-H522 lung it was 3.74 µM; in the assay on SF-268 CNS, 5.97 µM; with SK-MEL-28 melanoma, 5.76 µM.
Turning to `CCOc1ccc(-c2nonc2NC(=O)c2cccc(C)c2)cc1OCC`, the GI50 with 786-0 renal is 49.7 µM; with ACHN renal, > 100 µM; with BT-549 breast it was > 100 µM; in the assay with IGROV1 ovarian, 67 µM; in the assay with LOX IMVI melanoma it was > 100 µM; with NCI-H23 lung, 35.8 µM. The GI50 in the assay on NCI-H460 lung is > 100 µM; with NCI-H522 lung, > 100 µM; with SF-268 CNS, 90.5 µM; in the assay on SK-MEL-28 melanoma, > 100 µM. The TGI in the assay with 786-0 renal, with ACHN renal, with BT-549 breast, with IGROV1 ovarian, in the assay with LOX IMVI melanoma and in the assay on NCI-H23 lung was > 100 µM in each case. Also, the TGI in the assay with NCI-H460 lung, in the assay with NCI-H522 lung, with SF-268 CNS and in the assay on SK-MEL-28 melanoma was > 100 µM each time.
As for `CC(C)(O)CS(=O)(=O)Nc1ccc2c(c1)CCN(C(=O)COc1cccnc1)C2`, the GI50 in the assay on 786-0 renal was > 100 µM; with ACHN renal, > 100 µM; in the assay on BT-549 breast it was 2.33 µM; in the assay with IGROV1 ovarian it was > 84 µM; in the assay with LOX IMVI melanoma, > 100 µM; in the assay on NCI-H23 lung, > 100 µM. The values for the GI50 in the assay with NCI-H460 lung, in the assay with SF-268 CNS and in the assay with SK-MEL-28 melanoma were 11.5 µM, > 100 µM and > 100 µM, respectively. The TGI in the assay on 786-0 renal, in the assay on ACHN renal, with BT-549 breast, in the assay with IGROV1 ovarian, with LOX IMVI melanoma and in the assay on NCI-H23 lung was > 100 µM in each case. For the same molecule, the TGI with NCI-H460 lung, with NCI-H522 lung, with SF-268 CNS and in the assay on SK-MEL-28 melanoma was > 100 µM in each case.
Take `C=CC(=O)N1CCN(c2nc(=O)n(-c3c(C)ccnc3C(C)C)c3nc(-c4c(O)cccc4F)c(F)cc23)[C@@H](C)C1`: the GI50 in the assay with 786-0 renal is 14.7 µM; with ACHN renal it was 40.9 µM; in the assay on BT-549 breast, 15.8 µM; in the assay with IGROV1 ovarian it was > 44.7 µM; in the assay on LOX IMVI melanoma, 16.9 µM; in the assay on NCI-H460 lung, 43.4 µM. The GI50 with NCI-H522 lung was 29.8 µM; in the assay on SF-268 CNS it was 35.6 µM; in the assay on SK-MEL-28 melanoma it was > 58.7 µM. The TGI with 786-0 renal is 36.3 µM; in the assay with ACHN renal, > 100 µM; with BT-549 breast, > 51.3 µM; in the assay on IGROV1 ovarian, > 73.9 µM; in the assay with LOX IMVI melanoma, 38.1 µM; in the assay on NCI-H23 lung, > 47.2 µM. The TGI with NCI-H460 lung, with NCI-H522 lung, in the assay on SF-268 CNS and with SK-MEL-28 melanoma was > 100 µM throughout.
On to `COc1cc2cc(Oc3ccc(NC(=O)Nc4cccc(C(F)(F)F)c4)cc3)c(C)nc2cc1OC`, for which the GI50 in the assay with 786-0 renal is 1.74 µM; in the assay on ACHN renal, 1.64 µM; in the assay with BT-549 breast, 1.43 µM; in the assay with IGROV1 ovarian it was 2.95 µM; in the assay with LOX IMVI melanoma, 1.84 µM; in the assay with NCI-H23 lung it was 1.7 µM. The GI50 with NCI-H460 lung is 1.6 µM; in the assay with NCI-H522 lung it was 1.32 µM; with SF-268 CNS, 2.57 µM; with SK-MEL-28 melanoma it was 1.97 µM. Further, the TGI with 786-0 renal came out at 9.24 µM; in the assay with ACHN renal it was 7.71 µM; with BT-549 breast it was 6.18 µM; in the assay with IGROV1 ovarian it was 24.9 µM; in the assay with LOX IMVI melanoma, 6.61 µM; with NCI-H23 lung, 7.41 µM. The TGI in the assay on NCI-H460 lung came out at 6.02 µM; in the assay on NCI-H522 lung it was 4.49 µM; in the assay with SF-268 CNS it was 15.5 µM; in the assay on SK-MEL-28 melanoma, 8.37 µM.

For the origin of these results see PubChem BioAssay (NCI).
